Reference: patent US12357604B2, “Topical formulations of cannabinoids and use thereof in the treatment of pain” (INMED PHARMACEUTICALS INC., priority 2017, dated 2025)
Entries after “also recorded” stand apart in the source; their conditions may differ.

B1: NGF: nerve growth factor (Sigma) injected into masseter muscle to induce mechanical sensitization (protein, UniProt P01139 122-241, looked up)
Beta-nerve growth factor: SSTHPVFHMGEFSVCDSVSVWVGDKTTATDIKGKEVTVLAEVNINNSVFRQYFFETKCRASNPVESGCRGIDSKHWNSYCTTTHTFVKALTTDEKQAAWRFIRIDTACVCVLSRKATRRG

Experiments:
[1] = test system: masseter muscle mechanoreceptors; test: In vivo electrophysiology: mechanical threshold of mechanoreceptors; parameters: species or system Sprague-Dawley rats; conditions: for MT of masseter muscle mechanoreceptors on co-administration of THC with CB1 or CB2 antagonist: THC 1 mg/ml with AM251 or AM630 (1:0.5 and 1:1 mg/ml), intramuscular; for MT of masseter muscle mechanoreceptors: anesthetized rats, MT at 10, 30, 60, 120 min, 6 mechanoreceptors/group
Experimental: In vivo electrophysiology recordings of single ganglion neurons that innervate the craniofacial muscles were performed to investigate the mechanism of action of peripherally injected cannabinoids. Rats (n=6/group) from the behavioral experiments were used for subsequent in vivo electrophysiological experiments. Recordings were performed at least 7 days after the behavioral experiments and experiments were conducted on the PBS-injected masseter muscles (right side) of the rats to minimize potential residual effects of the previous cannabinoid treatments.
Rats were anesthetized with isoflurane (2-2.5% in oxygen 97-98%; AErrane; Baxter) and surgically prepared for electrophysiological recording. Heart rate, blood pressure and body temperature were monitored and a trachea tube was inserted for ventilation throughout the experiment. The hair of the face was shaved and the animal's head was positioned in a stereotaxic frame.
A parylene-coated tungsten microelectrode (0.10″, 2 MΩ, A-M Systems Inc.) was lowered into the trigeminal ganglion through the brain via a small trephination in the skull. An incision was made over the neck to expose the brain stem, and the dura was removed to allow access for a stimulating electrode to contact the caudal brain stem. Mechanoreceptors innervating craniofacial muscles (masseter and temporalis) were identified by mechanical probing using a fine-tipped cotton swab. Antidromic collisions were performed to confirm projection of the muscle fiber to the caudal brain stem (16, 30).
A stimulating electrode (parylene-coated tungsten microelectrode, 0.10″, 2 MΩ, A-M Systems Inc.) was lowered into the ipsilateral caudal brainstem and a constant-current electrical stimulus (100 μs biphasic pulse, 10-90 μA, 0.5 Hz) was applied to evoke antidromic action potentials. Orthodromic action potentials were evoked by mechanical stimulation of the tissue. […] The straight line distance between the stimulating and recording electrodes was divided by the latency of the antidromic action potential to estimate conduction velocity. MT was assessed with an electronic von Frey hair (IITC Life Science) by applying mechanical stimuli at 1 min intervals for 10 min to obtain baseline threshold. After baseline measurement, treatment was administered and MT was reassessed at 10, 30, 60, and 120 minutes thereafter. At the end of the experiments, animals were euthanized with pentobarbital (Nembutal 100 mg/kg, Abbott Laboratories, Chicago, IL).
(§1) For the immunohistochemistry experiment, the frequency of expression of CB1, CB2 and TRPV1, respectively, in trigeminal ganglion neurons between NGF and vehicle-injected sides was analyzed with a paired Student's t-test. For the behavioral and electrophysiological experiments, MT from NGF and vehicle-injected sides was analyzed with a two-way repeated measures analysis of variance (ANOVA) with time and treatment as factors. Relative mechanical activation threshold (Rel MT) was calculated as 100×Post-treatment MT/Baseline MT. Post hoc Holm Sidak's multiple comparison tests were used to compare post injection mechanical thresholds between treatment groups at each time point. One-way repeated measures ANOVA on ranks was used to analyze test scores in the inverted screen tests. A probability level of 0.05 was considered significant for all tests. Error bars represented standard error of the mean.

[2] = test system: NGF-induced sensitization in female rat masseter muscle; test: Behavioral mechanical threshold (electronic von Frey) of NGF-sensitized masseter muscle; type: in vivo, Sprague-Dawley rats; conditions: for MT of contralateral masseter muscles: after intramuscular cannabinoid injection into the NGF-injected side (THC 1 mg/ml, CBD 5 mg/ml, CBN 1 mg/ml); for Effect on NGF-induced mechanical sensitization (masseter muscle mechanical threshold, MT): intramuscular injection 10 μl, into NGF-injected masseter 3 days after NGF, MT at 10, 30, 60, 120 min, n=6/group
Description: Female (259-350 g, n=55) Sprague-Dawley rats were used for all experiments. Animals were housed in groups of two with a 12-h light/dark cycle. Food and water were given ad libitum. All animal procedures were reviewed and approved by the University of British Columbia Animal Care Committee.
Appropriate volumes of each solution were evaporated under nitrogen gas, and subsequently re-solubilized with 4% Tween 80 in isotonic saline to final concentrations used for injection.
Three days before behavioral experiments, rats received an injection of NGF (25 μg/ml, 10 μl, Sigma, St. Louis, MO) or vehicle (phosphate buffered saline, PBS, 10 μl) into the left and right masseter muscles, respectively, under brief isoflurane anesthesia. […] This is accompanied by an increase in NMDA receptor expression in peripheral trigeminal ganglion neurons with a peak at three days after injection (15). […] The masseter muscle region was shaved prior to injection and the injection sites were marked with a permanent marker for subsequent identification. The concentration of NGF was selected based on the concentration used in previous human experimental pain studies and experiments in rats (15, 24, 25, 26, 27). The investigator was blinded to the identity of the treatment groups until after all data was collected.
MT was assessed with a rigid electronic von Frey hair (IITC Life Science, Woodland Hills, CA). Before NGF injection, rats were habituated to restraint in a towel. […] The mechanical test stimulus was applied at 1 min intervals for 5 min and the average was calculated for further analysis. MT was measured daily for 5 days prior to the start of the experiment to determine that measurements were stable. MT readings recorded prior to NGF injection were used as naïve baseline. […] On the test day, a post-NGF injection baseline (NGF baseline) was recorded before injection of cannabinoid treatment groups. After treatment injections, MT was measured at 10, 30, 60, and 120 min after injection.
as §1

[3] = test system: mental nerve ligation model; test: Topical THC in mental nerve ligation model; type: in vivo, mice; conditions: topical THC 1% in a PLO-gel cream base
Experimental: FIG. 14 illustrates the effect of topical THC (1%) in a mental nerve ligation model. Neuropathic pain behavior was measured by observing total facial grooming in naïve and post-surgical mice after application of vehicle or THC.
FIG. 15 illustrates the effect of topical THC (1%) in a mental nerve ligation model. Neuropathic pain behavior was measured by observing mechanical threshold response in naïve and post-surgical mice after application of vehicle or THC.

[4] = test system: impaired motor function in rats; test: Inverted screen test; type: in vivo, Sprague-Dawley rats; conditions: after intramuscular injection; for Impairment of motor functions in the inverted screen tests: tested at 10, 30, 60 and 120 min, n=4/group; for Inverted screen test median score: score 0 climbed to top, 1 held on upside down, 2 fell
Experimental: A modified version of the inverted screen test was performed to evaluate impaired motor function in rats (28, 29). Rats (n=4/group) were placed on a screen (185 mm×290 mm) with 5 mm diameter holes and the screen was slowly inverted 180 degrees until the rats were suspended upside down on the bottom of the screen. […] The rats were trained how to perform the test daily for three days before they were tested.
as §1

CB1 = test: Immunohistochemistry of masseter ganglion neurons after NGF injection: CB1; type: in vivo, Sprague-Dawley rats; conditions: 3 days after NGF 25 μg/ml, 10 μl; saline side 52±3%; n=5 rats
Experimental: (§2) To identify trigeminal ganglion neurons that innervate the masseter muscle, the fluorescent tracer dye Fast Blue (2%, Polysciences, Warrington, PA) was injected bilaterally into the masseter muscles of rats (n=5),7 days prior to euthanization. NGF (25 μg/ml, 10 μI, Sigma, St. Louis, MO) or vehicle (phosphate buffered saline, PBS, 10 μI) was injected into the left and right masseter muscles, respectively, three days before euthanization. Under deep isoflurane anesthesia, animals were perfused with 120 ml cold saline followed by 120 ml of paraformaldehyde (4%). Trigeminal ganglia and masseter muscles were removed, incubated in 20% and then 40% sucrose for 48h each to cryoprotect the tissue, and cut into 10 μm sections with a cryotome. […] Fast Blue positive cells were counted and photographed for estimation of cell diameter. […]
(§3) For the immunohistochemistry experiment, the frequency of expression of CB1, CB2 and TRPV1, respectively, in trigeminal ganglion neurons between NGF and vehicle-injected sides was analyzed with a paired Student's t-test. For the behavioral and electrophysiological experiments, MT from NGF and vehicle-injected sides was analyzed with a two-way repeated measures analysis of variance (ANOVA) with time and treatment as factors. Relative mechanical activation threshold (Rel MT) was calculated as 100×Post-treatment MT/Baseline MT. […]

TRPV1 = test: Immunohistochemistry of masseter ganglion neurons after NGF injection: TRPV1; type: in vivo, Sprague-Dawley rats; conditions: 3 days after NGF 25 μg/ml, 10 μl; n=5 rats
Experimental: as §2, §3

CB2 = test: Immunohistochemistry of masseter ganglion neurons after NGF injection: CB2; type: in vivo, Sprague-Dawley rats; conditions: 3 days after NGF 25 μg/ml, 10 μl; saline side 47±5%; n=5 rats
Experimental: as §2, §3

[5] = intramuscular injection 1 mg/ml

Molecule	MT of contralateral masseter muscles [2]	Effect on NGF-induced mechanical sensitization (masseter muscle mechanical threshold, MT) ([2]; 1 mg/ml)	MT of masseter muscle mechanoreceptors [1, 5]	Impairment of motor functions in the inverted screen tests [4]	Inverted screen test median score [4]	further results
Cc1c(C(=O)NN2CCCCC2)nn(-c2ccc(Cl)cc2Cl)c1-c1ccc(I)cc1 [AM251, 1-(2,4-dichlorophenyl)-5-(4-iodophenyl)-4-methyl-N-1-piperidinyl-1H-pyrazole-3-carboxamide]						MT of masseter muscle mechanoreceptors on co-administration of THC with CB1 or CB2 antagonist [1]: attenuated the increase in MT mediated by THC alone
CCCCCc1cc(O)c2c(c1)OC(C)(C)[C@@H]1CCC(C)=C[C@@H]21 [THC, delta-9-tetrahydrocannabinol]	No change in mechanical threshold	significantly reversed NGF-induced sensitization at 10 and 30 min after injection; also recorded: Significant differences	significantly increased the MT of mechanoreceptors at 10, 30 and 60 min after injection; also recorded: Significant differences	No impairment of motor functions	0	Mechanical allodynia in the lower lip skin (mechanical threshold response) [3]: reversed mechanical allodynia; Neuropathic pain behavior (facial grooming) [3]: reduced neuropathic pain behavior
CCCCCc1cc(O)c2c(c1)OC(C)(C)c1ccc(C)cc1-2 [CBN, 6,6,9-trimethyl-3-pentylbenzo[c]chromen-1-ol]	No change in mechanical threshold	significant increase in MT at 10 min after injection compared to NGF baseline; also recorded: Significant differences	significantly increased MT at 30 and 60 min after injection; also recorded: Significant differences	No impairment of motor functions	0	Area under the curve (AUC) analysis of the electrophysiological data ([1]; AUC of MT data of FIGS. 9-12, compared to the other indicated treatments): reduction in pain response
C=C(C)C1CCC(C)=CC1c1c(O)cc(CCCCC)cc1O (centres unmarked) [CBD, 2-(6-isopropenyl-3-methyl-2-cyclohexen-1-yl)-5-pentyl-1,3-benzenediol]	No change in mechanical threshold	had no effect on NGF-induced mechanical sensitization	not 1 mg/ml, significantly increased MT	No impairment of motor functions	0	Effect on NGF-induced mechanical sensitization (masseter muscle mechanical threshold, MT) ([2]; 5 mg/ml): significantly reversed NGF-induced sensitization at 10 and 30 min after injection; also recorded: Significant differences; MT of masseter muscle mechanoreceptors ([1]; intramuscular injection 5 mg/ml): significantly increased MT, 30 min after injection; also recorded: Significant differences
CCCCCc1cc(O)c2c(c1)OC(C)(CCC=C(C)C)C=C2 (centres unmarked) [CBC, Cannabichromene]		No effect on MT		No impairment of motor functions	0	
COc1ccc(C(=O)c2c(C)n(CCN3CCOCC3)c3cc(I)ccc23)cc1 [AM630, [6-iodo-2-methyl-1-[2-(4-morpholinyl)ethyl]-1H-indol-3-yl](4-methoxyphenyl)-methanone]						MT of masseter muscle mechanoreceptors on co-administration of THC with CB1 or CB2 antagonist [1]: not different from THC alone
B1						Decrease of masseter muscle MT ([2]; 3 days after intramuscular injection of NGF 25 μg/ml, 10 μl): 31%; Frequency of expression of CB1 in masseter ganglion neurons, NGF-injected side (CB1): 39±3%; Effect on TRPV1 expression in masseter ganglion neurons (TRPV1): No significant effect; Frequency of expression of CB2 in masseter ganglion neurons, NGF-injected side (CB2): 33±6%
